# Results from article PMC5539197, “CD14 is critical for TLR2-mediated M1 macrophage activation triggered by N-glycan recognition” (Scientific Reports, 2017).
# Target: T1, ArtinM (Artocarpus integer, UniProt Q7M1T4)
# T1 construct: tetramer
# T1 sequence (Q7M1T4 1-149): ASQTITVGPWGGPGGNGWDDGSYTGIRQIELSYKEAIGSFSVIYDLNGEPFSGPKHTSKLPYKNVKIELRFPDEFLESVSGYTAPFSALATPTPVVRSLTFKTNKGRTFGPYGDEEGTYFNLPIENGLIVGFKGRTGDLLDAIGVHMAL
# Experiment: inhibition of lectin precipitation, western blot
# Format: binding
# Conditions: 1 mM trimannoside pre-incubated, 4 °C; lysate of HEK cells transfected with CD14 or TLR2; carbohydrate recognition site, competes with glycoprotein N-glycans
# Procedure: inhibition of lectin precipitation, western blot on […] | CD14 and TLR2 were not detected when the procedure was carried out with […]
compound,measurement,value
OC[C@H]1O[C@H](OC[C@H]2OC(O)[C@@H](O)[C@@H](O[C@H]3O[C@H](CO)[C@@H](O)[C@H](O)[C@@H]3O)[C@@H]2O)[C@@H](O)[C@@H](O)[C@@H]1O (stereo partly shown) [Manα1-3(Manα1-6)Man],"inhibition of lectin precipitation, western blot",CD14 and TLR2 were not detected when the procedure was carried out with ArtinM
